Experimental data taken from US20050032745A1, “Modified low molecular weight heparin that inhibits clot associated coagulation factors” (Hamilton Civic Hospitals Res Dev., Inc., priority 2000, published 2005).

How the values were obtained:
washed plasma clot = test: procoagulant activity of washed plasma clot incubated in unanticoagulated whole blood; assay type: biochemical
Source text: There is mounting evidence that both fibrin-bound thrombin and platelet-bound factor Xa contribute to the intense procoagulant activity of thrombi. […] Development of these agents requires an understanding of the mechanisms by which fibrin-bound IIa and platelet-bound factor Xa are protected from inactivation by heparin, LMWH and hirudin.

injured rabbit aorta = test: rabbit arterial thrombosis prevention model (flow distal to 95% stenosis in injured aorta); assay type: in vivo; conditions: FIG. 11
Protocol: This example illustrates a study comparing the efficacy and safety of the MLMWH compounds of the present invention, which are denoted in the figures as V21, LMWH, heparin and hirudin in a the rabbit arterial thrombosis prevention model. […] The arterial thrombosis prevention model was modified so that both efficacy and safety could be assessed in the same animal. Efficacy was assessed by measuring flow over 90 minutes distal to a 95% stenosis in an injured rabbit aorta, and safety was assessed by measuring blood loss over 30 minutes using the rabbit ear model. The four compounds were compared at three dosage levels. Each compound was administered as a bolus and infusion for 90 minutes. The doses listed in the following figures represent the bolus and infusion/60 minutes, administered for 90 minutes. The doses for heparin are shown as units/Kg, for LMWH and V21 as mg/Kg and for hirudin as mg/Kg. V21 has similar anti-Xa activity to LMWH and about twice the anti-IIa activity of LMWH. Thus, the specific activity of LMWH is 100 anti-Xa/mg and 30 anti-IIa units/mg. The specific activity of V21 is 100 anti-Xa units/mg and 60 anti-IIa units/mg, whereas the specific activity of heparin is about 150 anti-Xa units and 150 anti-IIa units/mg. The anticoagulants were compared in the following dosages. […]

| Substance | blocking of the ability of a washed plasma clot to accelerate coagulation (washed plasma clot) | response of the model to the antithrombotic effects (injured rabbit aorta) |
| --- | --- | --- |
| TAP: tick anticoagulant peptide, a direct inhibitor of factor Xa (YNRLCIKPRDWIDECDSNEGGERAYFRNGKGGCDSFWICPEDHTGADYYSSYRDCFNACI; UniProt P17726 1-60, looked up) | cannot be blocked |  |
| hirudin | cannot be blocked | very responsive |
